Values quoted from earlier work as cited in patent US20050064563A1, “Nucleic acids for aminocoumarin biosynthesis” (priority 2001, published 2005).

Target: intact gyrase (bacterial DNA gyrase) (Escherichia coli, UniProt P0AES6)
Conditions: intact gyrase heterotetramer; Peng et al. (1993) J. Biol. Chem. 268: 24481-24490; read-out: concentration achieving 50% inhibition of gyrase

In the case of `CO[C@H]1[C@H](OC(=O)c2ccc(C)[nH]2)[C@H](O)[C@@H](Oc2ccc3c(O)c(NC(=O)c4c[nH]c(C(=O)Nc5c(O)c6ccc(O[C@H]7OC(C)(C)[C@@H](OC)[C@H](OC(=O)c8ccc(C)[nH]8)[C@@H]7O)c(C)c6oc5=O)c4C)c(=O)oc3c2C)OC1(C)C` [coumermycin A1], the IC50 is listed as 4 nM.
